Measured values from US7084268B1, “Carbapenem compound crystals and interjection preparations” (Eisai Co., Ltd., priority 1999, dated 2006).
Where a name gives a salt, the structure may show the parent alone.

How the values were obtained:
Type in all cases: physicochemical
[1] = Solubility in 62.5% (v/v) aqueous organic solvents, quantification in HPLC; settings: 20° C., 30 minutes, monohydrochloride trihydrate
Protocol: The solubility of (+)-(1R,5S,6S)-6-[(R)-1-hydroxyethyl]-1-methyl-2-[(2S,4S)-2-[(3R)-pyrrolidine-3-yl-(R)-hydroxymethyl]pyrrolidine-4-yl]thio-1-carbapen-2-em-3-carboxylic acid monohydrochloride monohydrate and trihydrate in various aqueous organic solvents at a concentration of 62.5% (v/v) in water at 20° C. was determined by HPLC in the following manner.

[2] = Color difference after degasification of vial at various pressures and replacement by nitrogen; settings: 80° C./1 week, n = 6
Protocol: As the monohydrate, the powdery charged preparations for injection of the novel carbapenem crystals (25 mg/vial) obtained by degasification of the air in the vial at 100, 10, 1, 0.1 and 0.01 hPa (hectopascal) respectively and subsequent replacement by nitrogen according to the method in Example 2-3 (replacement by nitrogen) were stored at 60° C. for 1 or 4 weeks (N=6) and then measured for their color difference (ΔE). The oxygen concentrations in the preparations in vials degasified at 100, 10, 1, 0.1, 0.01 hPa (hectopascal) were measured by an oxygen analyzer (RO-101, Iizima Kogyo). As the trihydrate, the powdery charged preparations of the novel carbapenem hydrochloride crystals (25 mg/vial) obtained in the method in Example 1-9 (replacement by nitrogen) were degasified in the same manner, stored at 80° C. for 1 week (N=6) and then measured for their color difference (ΔE). As the control, the powdery charged preparation of the novel carbapenem hydrochloride crystals (25 mg/vial) subjected to neither degasification nor replacement by nitrogen was used.

[3] = Storage of crystals in bottles without caps at various relative humidity, with or without oxygen absorbent; settings: 25° C., 2 weeks, listed as trihydrate crystals, monohydrochloride trihydrate
[4] = as above; settings: 25° C., 2 weeks; for water content (hygroscopicity): listed as trihydrate crystals, monohydrochloride trihydrate
Protocol: The novel carbapenem hydrochloride crystals were weighed in 25 mL wide-mouthed glass bottles (30 mg/bottle), and in the bottles without caps, the monohydrate was stored for 1 week at 40° C. at a relative humidity of 0%, 19.2%, 53% and 75%, and the trihydrate was stored for 2 weeks at 25° C. at a relative humidity of 11%, 33%, 51%, 75% and 93%. Then, the crystals were measured for their color difference (ΔE), water content, powdery X-ray diffraction pattern, and content of residual carbapenem. The monohydrate was also examined in the presence or absence of an oxygen absorbent (trade name: Ageless, produced by Mitsubishi Gas Chemical Co., Ltd.) during storage at each relative humidity. The oxygen absorbent makes oxygen-free conditions under which the preparation is placed.

[5] = Effect of degasification of the air in a vial and/or replacement by nitrogen (storage of powdery charged preparations); settings: 25 mg/vial, storage at 40° C. for 1 month
Protocol: As the monohydrate crystals, the powdery charged preparation of the novel carbapenem hydrochloride crystals (25 mg/vial) obtained in the method in Example 2-3 (replacement by nitrogen), the powdery charged preparation (25 mg/vial) subjected to replacement by oxygen in place of replacement by nitrogen in Example 2-3, and the powdery charged preparation (25 mg/vial) not subjected to replacement in Example 2-2 were stored at 60° C. for 5 days (N=3) and then measured for their color difference (ΔE), water content, powdery x-ray diffraction pattern, content of residual carbapenem and HPLC impurities. As the trihydrate crystals, the powdery charged preparation of the novel carbapenem hydrochloride crystals (25 mg/vial) obtained by the method (replacement by nitrogen) in Example 1-9 and the powdery charged preparation (25 mg/vial) not subjected to replacement in Example 1-8 were stored at 40° C. for 1 month and then measured for their color difference (ΔE), water content and content of residual carbapenem. The color difference was evaluated by a color difference meter (ZE-200, Nippondenso Co., Ltd.); the water content by a Karl-Fisher moisture meter (CA-05, Mitsubishi Kagaku Kogyo); the powdery X-ray diffraction under the method and conditions in Example 1-1 or 2-1; and the content of residual carbapenem and HPLC impurities by high performance liquid chromatography (Shimadzu Corporation). The color difference (ΔE) is a parameter indicative of a change in the color of the outward appearance of crystals, and its higher value indicates a greater coloration change than at an initial stage (just after production).

solubility ([1]; 62.5% (v/v) 1-ethoxy-2-propanol in water): 3320 µg/mL
solubility ([1]; 62.5% (v/v) 1-methoxy-2-propanol in water): 3370 µg/mL
solubility ([1]; 62.5% (v/v) 2-ethoxyethanol in water): 4360 µg/mL
solubility ([1]; 62.5% (v/v) 2-isopropoxyethanol in water): 4360 µg/mL
solubility ([1]; 62.5% (v/v) 2-methoxyethanol in water): 6390 µg/mL
solubility ([1]; 62.5% (v/v) 3-methoxy-3-methyl-1-butanol in water): 4860 µg/mL
solubility ([1]; 62.5% (v/v) 3-methoxybutanol in water): 3240 µg/mL
solubility ([1]; 62.5% (v/v) IPA (isopropyl alcohol) in water): 4740 µg/mL
solubility ([1]; 62.5% (v/v) acetonitrile in water): 12990 µg/mL
solubility ([1]; 62.5% (v/v) diethylene glycol monoethyl ether in water): 2680 µg/mL
solubility ([1]; 62.5% (v/v) diethylene glycol monomethyl ether in water): 2410 µg/mL
solubility ([1]; 62.5% (v/v) dimethyl acetamide in water): 4530 µg/mL
solubility ([1]; 62.5% (v/v) dimethyl ether in water): 1440 µg/mL
solubility ([1]; 62.5% (v/v) dimethyl formamide in water): 7310 µg/mL
solubility ([1]; 62.5% (v/v) dimethyl sulfoxide in water): 11840 µg/mL
solubility ([1]; 62.5% (v/v) ethanol in water): 6320 µg/mL
solubility ([1]; 62.5% (v/v) methanol in water): 14380 µg/mL
solubility ([1]; 62.5% (v/v) n-propanol in water): 10460 µg/mL
solubility ([1]; 62.5% (v/v) t-butanol in water): 6060 µg/mL
solubility ([1]; 62.5% (v/v) tetrahydrofuran in water): 5290 µg/mL
solubility ([1]; 62.5% (v/v) triethylene glycol monomethyl ether in water): 2470 µg/mL
color difference (ΔE) ([2]; control: neither degasification nor replacement by nitrogen): 10.06
color difference (ΔE) ([2]; vial degasified at 1 hPa, replaced by nitrogen): 3.62
color difference (ΔE) ([2]; vial degasified at 10 hPa, replaced by nitrogen): 3.92
color difference (ΔE) ([2]; vial degasified at 100 hPa, replaced by nitrogen): 4.90
water content (hygroscopicity) ([3]; relative humidity 11%): 11.0%
water content (hygroscopicity) ([3]; relative humidity 75%): 11.1%
water content (hygroscopicity) ([3]; relative humidity 93%): 11.4%
powdery X-ray diffraction pattern (hygroscopicity) ([4]; relative humidity 11%): no change
powdery X-ray diffraction pattern (hygroscopicity) ([4]; relative humidity 33%): no change
water content (hygroscopicity) ([4]; relative humidity 33%): 11.1%
powdery X-ray diffraction pattern (hygroscopicity) ([4]; relative humidity 51%): no change
water content (hygroscopicity) ([4]; relative humidity 51%): 11.1%
powdery X-ray diffraction pattern (hygroscopicity) ([4]; relative humidity 75%): no change
powdery X-ray diffraction pattern (hygroscopicity) ([4]; relative humidity 93%): no change
color difference (ΔE) ([5]; control (air)): 2.78
content of residual carbapenem compound ([5]; control (air)): 101.0%
water content ([5]; control (air)): 12.0%
color difference (ΔE) ([5]; gas for replacement nitrogen): 0.00
content of residual carbapenem compound ([5]; gas for replacement nitrogen): 100.2%
water content ([5]; gas for replacement nitrogen): 11.3%
SMILES: C[C@@H](O)[C@H]1C(=O)N2C(C(=O)O)=C(S[C@@H]3CN[C@H]([C@H](O)[C@@H]4CCNC4)C3)[C@H](C)[C@H]12 [trihydrate, (+)-(1R,5S,6S)-6-[(R)-1-Hydroxyethyl]-1-methyl-2-[(2S,4S)-2-[(3R)-pyrrolidine-3-yl-(R)-hydroxymethyl]pyrrolidine-4-yl]thio-1-carbapen-2-em-3-carboxylic acid monohydrochloride trihydrate]
solubility ([1]; 62.5% (v/v) 1-acetoxy-2-methyl ethane in water): 2850 µg/mL
solubility ([1]; 62.5% (v/v) 2-butoxyethanol in water): 11850 µg/mL
